Reference: patent US6737383B1, “Herbicidal oxadiazolidines” (priority 1999, dated 2004)

Columns and labels:
morningglory = experiment: Test B pre/postemergence morningglory; assay type: in vivo, Ipomoea hederacea
Summary of the method: (§1)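 Test chemicals in a non-phytotoxic solvent mixture with surfactant were sprayed preemergence onto planted seeds and postemergence onto plants 2 to 18 cm tall (1- to 4-leaf stage). After twelve to sixteen days in a greenhouse, injury was visually rated against untreated controls from 0 (no effect) to 10 (complete control).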

duck salad = experiment: Test B flood test duck salad; assay type: in vivo, Heteranthera limosa
Summary of the method: (§2)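 Each value is a visual injury score relative to controls, with 10 meaning complete control and 0 no effect. Evaluation took place twelve to sixteen days after the 2-leaf-stage plants were treated and kept in the greenhouse.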

bamyardgrass = experiment: Test B flood test barnyardgrass; assay type: in vivo, Echinochloa crus-galli
Summary of the method: as §2

wild oat = experiment: Test B pre/postemergence wild oat; assay type: in vivo, Avena fatua; details: Preemergence
Summary of the method: as §1

sugar beet = experiment: Test B pre/postemergence sugar beet; assay type: in vivo, Beta vulgaris; details: Preemergence
Summary of the method: as §1

smallflower flatsedge = experiment: Test B flood test smallflower flatsedge; assay type: in vivo, Cyperus difformis
Summary of the method: as §2

soybean = experiment: Test B pre/postemergence soybean; assay type: in vivo, Glycine max; details: Preemergence
Summary of the method: as §1

giant foxtail = experiment: Test B pre/postemergence giant foxtail; assay type: in vivo, Setaria faberii
Summary of the method: as §1

rape = experiment: Test B pre/postemergence rape; assay type: in vivo, Brassica napus
Summary of the method: as §1

bedstraw = experiment: Test B pre/postemergence bedstraw; assay type: in vivo, Galium aparine
Summary of the method: as §1

surinam grass = experiment: Test B pre/postemergence surinam grass; assay type: in vivo, Brachiaria decumbens
Summary of the method: as §1

crabgrass = experiment: Test B pre/postemergence crabgrass; assay type: in vivo, Digitaria sanguinalis
Summary of the method: as §1

velvetleaf = experiment: Test B pre/postemergence velvetleaf; assay type: in vivo, Abutilon theophrasti; details: Preemergence
Summary of the method: as §1

corn = experiment: Test B pre/postemergence corn; assay type: in vivo, Zea mays
Summary of the method: as §1

cocklebur = experiment: Test B pre/postemergence cocklebur; assay type: in vivo, Xanthium strumarium
Summary of the method: as §1

purple nutsedge = experiment: Test B pre/postemergence purple nutsedge; assay type: in vivo, Cyperus rotundus; details: Postemergence
Summary of the method: as §1

blackgrass = experiment: Test B pre/postemergence blackgrass; assay type: in vivo, Alopecurus myosuroides
Summary of the method: as §1

pigweed = experiment: Test B pre/postemergence pigweed; assay type: in vivo, Amaranthus retroflexus
Summary of the method: as §1

wheat = experiment: Test B pre/postemergence wheat; assay type: in vivo, Triticum aestivum; details: Preemergence
Summary of the method: as §1

rice = experiment: Test B flood test rice; assay type: in vivo, Oryza sativa
Summary of the method: as §2

[1] = Preemergence, Rate 31 g/ha, visual rating, scale 0 to 10 (0 no effect, 10 complete control)
[2] = Preemergence, Rate 62 g/ha, scale of 0 to 10 where 0 is no effect and 10 is complete control
[3] = Preemergence, Rate 250 g/ha, scale of 0 to 10 where 0 is no effect and 10 is complete control
[4] = Rate 31 g/ha, Postemergence, scale 0 to 10
[5] = Rate 125 g/ha, Preemergence, scale of 0 to 10 where 0 is no effect and 10 is complete control
[6] = Rate 62 g/ha, headed Pre-emergence (flood test species), scale 0 to 10 (0 no effect, 10 complete control)
[7] = Rate 125 g/ha, Pre-emergence, flood test species, scale 0 to 10 where 0 is no effect and 10 is complete control
[8] = Rate 250 g/ha, Pre-emergence, flood-test species, scale 0 to 10, 0 is no effect, 10 is complete control
[9] = Rate 500 g/ha, Pre-emergence, flood test species, scale 0 to 10 (0 no effect, 10 complete control)
[10] = Rate 31 g/ha, visual rating, scale 0 to 10 (0 no effect, 10 complete control)
[11] = Rate 62 g/ha, scale of 0 to 10 where 0 is no effect and 10 is complete control
[12] = Rate 250 g/ha, scale of 0 to 10 where 0 is no effect and 10 is complete control
[13] = Rate 125 g/ha, scale of 0 to 10 where 0 is no effect and 10 is complete control
[14] = Rate 62 g/ha, Postemergence, scale of 0 to 10 where 0 is no effect and 10 is complete control
[15] = Rate 125 g/ha, Postemergence, scale 0 to 10

SMILES: CC(C)N(C(=O)n1oc(=O)n(CCc2ccccc2)c1=O)c1ccc(F)cc1 [Compound 250]
- Morningglory plant response rating (morningglory; [1]): 0
- Morningglory plant response rating (morningglory; [2]): 0
- Morningglory plant response rating (morningglory; [3]): 0
- Morningglory plant response rating (morningglory; [4]): 4
- Morningglory plant response rating (morningglory; [5]): 0
- Plant response rating (0 to 10; 0 is no effect, 10 is complete control), Morningglory (morningglory; Rate 250 g/ha, Postemergence): 6
- Ducksalad plant response rating (duck salad; [6]): 0
- Ducksalad plant response rating (duck salad; [7]): 0
- Ducksalad plant response rating (duck salad; [8]): 0
- Ducksalad plant response rating (duck salad; [9]): 4
- Barnyardgrass plant response rating (bamyardgrass; [6]): 0
- Barnyardgrass plant response rating (bamyardgrass; [7]): 0
- Barnyardgrass plant response rating (bamyardgrass; [8]): 0
- Barnyardgrass plant response rating (bamyardgrass; [9]): 0
- Wild oats plant response rating (wild oat; [10]): 0
- Wild oats plant response rating (wild oat; [11]): 0
- Wild oats plant response rating (wild oat; [12]): 0
- Wild oats plant response rating (wild oat; [13]): 0
- Sugarbeets plant response rating (sugar beet; [10]): 0
- Sugarbeets plant response rating (sugar beet; [11]): 0
- Sugarbeets plant response rating (sugar beet; [12]): 5
- Sugarbeets plant response rating (sugar beet; [13]): 0
- S. Flatsedge plant response rating (smallflower flatsedge; [6]): 0
- S. Flatsedge plant response rating (smallflower flatsedge; [7]): 0
- S. Flatsedge plant response rating (smallflower flatsedge; [8]): 0
- S. Flatsedge plant response rating (smallflower flatsedge; [9]): 0
- Soybean plant response rating (soybean; [10]): 0
- Soybean plant response rating (soybean; [11]): 0
- Soybean plant response rating (soybean; [12]): 0
- Soybean plant response rating (soybean; [13]): 0
- Giant foxtail plant response rating (giant foxtail; [1]): 7
- Giant foxtail plant response rating (giant foxtail; [2]): 8
- Giant foxtail plant response rating (giant foxtail; [3]): 10
- Giant foxtail plant response rating (giant foxtail; [4]): 0
- Giant foxtail plant response rating (giant foxtail; [5]): 8
- Plant response rating (0 to 10; 0 is no effect, 10 is complete control), Giant foxtail (giant foxtail; Rate 250 g/ha, Postemergence): 0
- Rape plant response rating (rape; [1]): 0
- Rape plant response rating (rape; [2]): 0
- Rape plant response rating (rape; [3]): 0
- Rape plant response rating (rape; [4]): 0
- Rape plant response rating (rape; [5]): 0
- Plant response rating (0 to 10; 0 is no effect, 10 is complete control), Rape (rape; Rate 250 g/ha, Postemergence): 3
- Bedstraw plant response rating (bedstraw; [1]): 0
- Bedstraw plant response rating (bedstraw; [2]): 0
- Bedstraw plant response rating (bedstraw; [3]): 0
- Bedstraw plant response rating (bedstraw; [4]): 0
- Bedstraw plant response rating (bedstraw; [14]): 0
- Bedstraw plant response rating (bedstraw; [15]): 0
- Bedstraw plant response rating (bedstraw; [5]): 0
- Plant response rating (0 to 10; 0 is no effect, 10 is complete control), Bedstraw (bedstraw; Rate 250 g/ha, Postemergence): 9
- B. signalgrass plant response rating (surinam grass; [1]): 0
- B. signalgrass plant response rating (surinam grass; [2]): 0
- B. signalgrass plant response rating (surinam grass; [3]): 0
- B. signalgrass plant response rating (surinam grass; [4]): 0
- B. signalgrass plant response rating (surinam grass; [14]): 0
- B. signalgrass plant response rating (surinam grass; Rate 125 g/ha, Postemergence, scale 0 (no effect) to 10 (complete control)): 0
- B. signalgrass plant response rating (surinam grass; [5]): 0
- Plant response rating (0 to 10; 0 is no effect, 10 is complete control), B. signalgrass (surinam grass; Rate 250 g/ha, Postemergence): 0
- Crabgrass plant response rating (crabgrass; [1]): 0
- Crabgrass plant response rating (crabgrass; [2]): 2
- Crabgrass plant response rating (crabgrass; [3]): 8
- Crabgrass plant response rating (crabgrass; [4]): 0
- Crabgrass plant response rating (crabgrass; [5]): 4
- Plant response rating (0 to 10; 0 is no effect, 10 is complete control), Crabgrass (crabgrass; Rate 250 g/ha, Postemergence): 0
- Velvetleaf plant response rating (velvetleaf; [10]): 0
- Velvetleaf plant response rating (velvetleaf; [11]): 0
- Velvetleaf plant response rating (velvetleaf; [12]): 0
- Velvetleaf plant response rating (velvetleaf; [13]): 0
- Corn plant response rating (corn; [1]): 0
- Corn plant response rating (corn; [2]): 0
- Corn plant response rating (corn; [3]): 0
- Corn plant response rating (corn; [4]): 0
- Corn plant response rating (corn; [14]): 0
- Corn plant response rating (corn; [15]): 0
- Corn plant response rating (corn; [5]): 0
- Plant response rating (0 to 10; 0 is no effect, 10 is complete control), Corn (corn; Rate 250 g/ha, Postemergence): 0
- Cocklebur plant response rating (cocklebur; [1]): 0
- Cocklebur plant response rating (cocklebur; [2]): 0
- Cocklebur plant response rating (cocklebur; [3]): 0
- Cocklebur plant response rating (cocklebur; [4]): 0
- Cocklebur plant response rating (cocklebur; [14]): 0
- Cocklebur plant response rating (cocklebur; [15]): 0
- Cocklebur plant response rating (cocklebur; [5]): 0
- Plant response rating (0 to 10; 0 is no effect, 10 is complete control), Cocklebur (cocklebur; Rate 250 g/ha, Postemergence): 1
- Nutsedge plant response rating (purple nutsedge; Rate 31 g/ha, scale 0 to 10): 0
- Plant response rating (0 to 10; 0 is no effect, 10 is complete control), Nutsedge (purple nutsedge; Rate 250 g/ha): 0
- Blackgrass plant response rating (blackgrass; [1]): 0
- Blackgrass plant response rating (blackgrass; [2]): 0
- Blackgrass plant response rating (blackgrass; [3]): 0
- Blackgrass plant response rating (blackgrass; [4]): 0
- Blackgrass plant response rating (blackgrass; [14]): 0
- Blackgrass plant response rating (blackgrass; [15]): 0
- Blackgrass plant response rating (blackgrass; [5]): 0
- Plant response rating (0 to 10; 0 is no effect, 10 is complete control), Blackgrass (blackgrass; Rate 250 g/ha, Postemergence): 2
- Redroot pigweed plant response rating (pigweed; [1]): 0
- Redroot pigweed plant response rating (pigweed; [2]): 0
- Redroot pigweed plant response rating (pigweed; [3]): 3
- Redroot pigweed plant response rating (pigweed; [4]): 0
- Redroot pigweed plant response rating (pigweed; [5]): 3
- Plant response rating (0 to 10; 0 is no effect, 10 is complete control), Redroot pigweed (pigweed; Rate 250 g/ha, Postemergence): 0
- Wheat plant response rating (wheat; [10]): 0
- Wheat plant response rating (wheat; [11]): 0
- Wheat plant response rating (wheat; [12]): 0
- Wheat plant response rating (wheat; [13]): 0
- Rice plant response rating (rice; [6]): 0
- Rice plant response rating (rice; [7]): 0
- Rice plant response rating (rice; [8]): 0
- Rice plant response rating (rice; [9]): 0
